Converted amounts (≈) assume the structure as drawn.
Experiments:
[1] = Solubility of the peptide product in MeOH; format: physicochemical; conditions: fully protected peptide made with pseudoproline/Dmb dipeptides, 'as high as', read-out: solubility (concentration easily achieved)
Source text: To improve the peptide synthesis yields and purities, as well as the solubilities of crude products, we attempted various strategies, including the replacement of the synthesized chlorotrityl resin with commercially available NovaSyn® TGT resin (preloaded with Fmoc-amino acids), the use of Ser/Thr-derived oxazolidines (pseudoprolines) and Dmb (2,4-dimethoxybenzyl)dipeptides, 1, 2, 3 and 4 shown below. While 1, 2 and 4 are available in large scale, 3 had to be prepared from a multistep synthesis. These dipeptides could be incorporated into the growing peptide chain in the same manner as normal amino acids activated by HATU. The synthesis outlined below exploited all the beneficial properties of these strategies and produced […] as determined by LC-MS.

EPO-R = biological target: T1, EPO-R (Homo sapiens, UniProt P19235); conditions: in vitro; compared to rHuEPO; cited from earlier work
T1 sequence (P19235 25-508): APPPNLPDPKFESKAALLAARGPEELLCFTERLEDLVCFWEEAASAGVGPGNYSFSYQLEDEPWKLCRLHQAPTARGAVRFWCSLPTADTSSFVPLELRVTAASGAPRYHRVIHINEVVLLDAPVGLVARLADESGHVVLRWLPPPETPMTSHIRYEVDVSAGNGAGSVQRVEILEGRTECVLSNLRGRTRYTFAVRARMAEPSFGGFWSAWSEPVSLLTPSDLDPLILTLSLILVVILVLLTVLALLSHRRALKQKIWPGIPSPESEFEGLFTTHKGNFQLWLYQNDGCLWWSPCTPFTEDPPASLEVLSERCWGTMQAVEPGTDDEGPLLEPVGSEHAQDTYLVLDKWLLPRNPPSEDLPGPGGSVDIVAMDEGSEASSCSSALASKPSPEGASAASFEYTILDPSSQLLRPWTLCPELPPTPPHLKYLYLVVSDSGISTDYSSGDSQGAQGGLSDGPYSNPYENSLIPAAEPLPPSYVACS

[2] = compared to rHuEPO; cited from earlier work

COc1ccc(CN(C(=O)[C@H](CC(=O)OCc2ccc(NC(CC(C)C)=C3C(=O)CC(C)(C)CC3=O)cc2)NC(=O)[C@@H](NC(=O)[C@H](Cc2cn(C(c3ccccc3)(c3ccccc3)c3ccccc3)cn2)NC(=O)[C@H](CC(C)C)NC(=O)[C@H](CCC(=O)NC(c2ccccc2)(c2ccccc2)c2ccccc2)NC(=O)[C@H](CC(C)C)NC(=O)[C@@H]2CCCN2C(=O)[C@H](CCC(=O)OCc2ccc(NC(CC(C)C)=C3C(=O)CC(C)(C)CC3=O)cc2)NC(=O)[C@H](Cc2cn(C(=O)OC(C)(C)C)c3ccccc23)NC(=O)[C@@H]2CCCN2C(=O)[C@H](CCC(=O)NC(c2ccccc2)(c2ccccc2)c2ccccc2)NC(=O)[C@H](COC(C)(C)C)NC(=O)[C@@H]2COC(C)(C)N2C(=O)[C@H](CC(=O)OC(C)(C)C)NC(=O)[C@@H](NC(=O)[C@H](CC(C)C)NC(=O)[C@H](CC(C)C)NC(=O)[C@H](C)NC(=O)[C@@H](N)CCC(=O)NC(c2ccccc2)(c2ccccc2)c2ccccc2)C(C)C)C(C)C)[C@@H](CCCCNC(CC(C)C)=C2C(=O)CC(C)(C)CC2=O)C(=O)N[C@@H](C)C(=O)N[C@H](C(=O)N2[C@H](C(=O)NCC(=O)N[C@@H](CC(C)C)C(=O)N[C@@H](CCCNC(=N)NS(=O)(=O)c3c(C)c(C)c4c(c3C)CC(C)(C)O4)C(=O)N[C@@H](COC(C)(C)C)C(=O)N[C@@H](CC(C)C)C(=O)N3[C@H](C(=O)N[C@H](C(=O)N[C@@H](CC(C)C)C(=O)N[C@@H](CC(C)C)C(=O)N[C@@H](CCCNC(=N)NS(=O)(=O)c4c(C)c(C)c5c(c4C)CC(C)(C)O5)C(=O)N[C@@H](C)C(=O)N[C@@H](CC(C)C)C(=O)NCC(=O)O)[C@@H](C)OC(C)(C)C)[C@@H](C)OC3(C)C)COC2(C)C)C(C)C)c(OC)c1 [EPO(78-113)]
solubility [1]: 4.6 mM (≈ 31.3 mg/mL)

darbepoetin alfa
affinity for the EPO-R (EPO-R): diminished by approximately one-fourth | activity in vivo [2]: remained the same

Source: patent US8754192B2, “Compositions comprising homogeneously glycosylated erythropoietin” (Sloan-Kettering Institute for Cancer Research, priority 2006, dated 2014)
